Experimental findings from publication PMC6180429 (Organic & Biomolecular Chemistry, 2018) are described below.

Experiment [1] concerns the target T1, PPARγ (peroxisome proliferator-activated receptor γ) (Homo sapiens, UniProt P37231).
T1 construct: gene PPARG
T1 sequence (P37231 232-505 limits assumed): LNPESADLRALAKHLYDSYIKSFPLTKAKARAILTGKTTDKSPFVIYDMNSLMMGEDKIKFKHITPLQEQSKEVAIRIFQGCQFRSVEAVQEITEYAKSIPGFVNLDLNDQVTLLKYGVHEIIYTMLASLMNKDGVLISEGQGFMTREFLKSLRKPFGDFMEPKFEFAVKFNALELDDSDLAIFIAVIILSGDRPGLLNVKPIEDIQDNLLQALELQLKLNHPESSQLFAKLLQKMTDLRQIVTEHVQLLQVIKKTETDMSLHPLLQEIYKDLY
Briefly: Gal4-PPARγ-LBD one-hybrid luciferase reporter assay in HEK293 cells (partial agonist). The class given is cell-based.

For experiment [2], the target named is T1, PPARγ (peroxisome proliferator-activated receptor γ). Briefly: Gal4-PPARγ reporter assay in HEK293 cells, antagonism of […] pioglitazone. The class given is cell-based.

On to `C=CCc1ccc(O)c(-c2cc(CC=C)c(CCC/C=C\Cc3ccc(O)cc3)cc2O)c1` [III, Sesqui magnolol A], for which, in experiment [1], a half-maximal response (EC50) required 1.07 µM.

With `C=CCc1ccc(O)c(-c2cc(C/C=C\CCCc3cc(O)ccc3CC=C)ccc2O)c1` [IV, Sesqui magnolol B], a half-maximal effect in experiment [1] (EC50) was put at 0.77 µM.

Take `C=CCc1ccc(O)cc1CCC/C=C\Cc1ccc(O)cc1` [V, Truncated magnolol dimer]: the “Gal4-PPARγ reporter assay in HEK293 cells, antagonism of 10 μM pioglitazone” value in experiment [2] is given as “V showed a dose-dependent inhibition of the pioglitazone induced PPARγ-Gal4 activation”.
